Data taken from BindingDB's records for patent US20240343694 (Korea Reserarch Institute of Chemical Technology, 2024).

Key:
[1] = biological target: T1, Receptor tyrosine-protein kinase erbB-2 [1-775,'YVMA',776-1255] (Homo sapiens, UniProt P04626); assay: Inhibitory Activity of Compounds Against HER2 A775_G776insYVMA mutant enzyme
T1 construct: 1-775,'YVMA',776-1255
Experimental: The activity of the compounds of the present invention against HER mutant enzymes was measured using the HTRF system purchased by Cisbio as follows. As a HER2 mutant enzyme, the HER2 A775_G776insYVMA mutant enzyme was used by purchasing a recombinant protein provided by Carna Biosciences.The composition of the assay buffer used for activity measurement was 50 mM tris-HCl pH 7.5, 100 mM NaCl, 7.5 mM MgCl2, 3 mM KCl, 0.01% tween 20, 0.1% BSA, and 1 mM DTT. In addition thereto, the enzymatic reaction was performed using a peptide substrate labeled with ATP at a concentration of […] and biotin at a concentration of […]. The analysis of the activity inhibitory effect of the compounds on HER2 A775_G776insYVMA mutation was performed according to the following method.Component 1:4 μL of HER2 A775_G776insYVMA mutant enzymeComponent 2:2 μL of compound solutionComponent 3:4 μL of ATP and a biotin labeled peptideThe enzyme reaction begins by first mixing component 1 and component 2 and then adding component 3 thereto. After the reaction at 37° C. for 2 hours, […] of a measurement solution consisting of streptavidin-XL665 and a europium-labeled anti-phosphotyrosine antibody purchased from Cisbio was added to the enzyme reaction solution and reacted at room temperature for 1 hour. Finally, the ratio of fluorescence values at 615 nm and 665 nm was measured using Perkin-Elmer's Envision equipment to calculate enzyme activity and confirm the inhibitory ability of the compounds.

[2] = biological target: T2, Epidermal growth factor receptor [1-763,'FHEA',764-1210] (UniProt P00533); assay: Inhibitory Activity of Compounds Against EGFR Mutant Enzyme
T2 construct: 1-763,'FHEA',764-1210
T2 sequence (P00533 with tags, fused parts or gaps INS763FHEA limits assumed): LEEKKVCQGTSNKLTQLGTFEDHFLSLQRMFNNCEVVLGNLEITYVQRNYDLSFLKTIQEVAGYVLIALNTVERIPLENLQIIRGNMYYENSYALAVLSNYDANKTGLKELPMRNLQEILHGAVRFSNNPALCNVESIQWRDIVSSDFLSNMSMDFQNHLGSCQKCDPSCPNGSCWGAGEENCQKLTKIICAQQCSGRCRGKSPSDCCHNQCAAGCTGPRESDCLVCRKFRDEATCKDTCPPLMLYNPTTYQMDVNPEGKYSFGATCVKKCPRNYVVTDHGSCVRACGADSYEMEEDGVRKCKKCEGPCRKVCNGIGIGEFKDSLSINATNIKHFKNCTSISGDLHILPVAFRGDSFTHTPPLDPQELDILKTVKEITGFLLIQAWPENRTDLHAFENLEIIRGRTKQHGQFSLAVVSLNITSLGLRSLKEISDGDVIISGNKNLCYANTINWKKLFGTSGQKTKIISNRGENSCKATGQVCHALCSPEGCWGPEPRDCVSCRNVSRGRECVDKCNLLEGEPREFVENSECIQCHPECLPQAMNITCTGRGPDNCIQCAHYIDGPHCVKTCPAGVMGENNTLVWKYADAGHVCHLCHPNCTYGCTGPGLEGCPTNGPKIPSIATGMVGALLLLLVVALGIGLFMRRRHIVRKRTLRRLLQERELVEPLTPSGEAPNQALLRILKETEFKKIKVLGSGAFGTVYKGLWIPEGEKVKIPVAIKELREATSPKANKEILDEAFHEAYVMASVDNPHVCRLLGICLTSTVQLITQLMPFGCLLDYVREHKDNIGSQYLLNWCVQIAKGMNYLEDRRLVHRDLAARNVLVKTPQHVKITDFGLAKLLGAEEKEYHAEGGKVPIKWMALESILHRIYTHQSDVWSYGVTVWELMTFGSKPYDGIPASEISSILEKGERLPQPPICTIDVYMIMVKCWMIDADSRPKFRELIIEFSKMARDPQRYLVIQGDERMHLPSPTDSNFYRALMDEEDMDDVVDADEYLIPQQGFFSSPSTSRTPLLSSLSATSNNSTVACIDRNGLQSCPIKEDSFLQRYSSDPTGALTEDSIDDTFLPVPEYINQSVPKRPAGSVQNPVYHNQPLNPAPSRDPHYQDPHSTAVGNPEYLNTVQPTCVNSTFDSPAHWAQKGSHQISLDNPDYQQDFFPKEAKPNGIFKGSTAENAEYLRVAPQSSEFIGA
Experimental: (§1) The activity of the compounds of the present invention against EGFR mutant enzymes was measured using the HTRF system purchased from Cisbio as follows. For an EGFR mutant enzyme, the EGFR del19 enzyme was a recombinant protein purchased from Carna Biosciences, and the EGFR A763_Y764insFHEA enzyme was a recombinant protein purchased from SignalChem, respectively.The composition of the assay buffer used for activity measurement was 50 mM tris-HCl pH 7.5, 100 mM NaCl, 7.5 mM MgCl2, 3 mM KCl, 0.01% tween 20, 0.1% BSA, and 1 mM DTT. An enzymatic reaction was performed using a peptide substrate labeled with ATP at a concentration of […] and biotin at a concentration of […]. The analysis of the inhibitory effect of the compounds on EGFR activity was performed according to the following method.Component 1:4 μL of EGFR mutant enzymeComponent 2:2 μL of compound solutionComponent 3:4 μL of ATP and a biotin labeled peptideThe enzyme reaction begins by first mixing component 1 and component 2 and then adding component 3 thereto. After the reaction at 37° C. for 2 hours, […] of a measurement solution consisting of streptavidin-XL665 and a europium-labeled anti-phosphotyrosine antibody purchased from Cisbio was added to the enzyme reaction solution and reacted at room temperature for 1 hour. Finally, the ratio of fluorescence values at 615 nm and 665 nm was measured using Perkin-Elmer's Envision instrument to calculate enzyme activity and confirm the inhibitory ability of the compounds.

[3] = biological target: T3, Epidermal growth factor receptor [DEL746-750] (Homo sapiens, UniProt P00533); assay: as above
T3 construct: gene EGFR
T3 sequence (P00533 with tags, fused parts or gaps DEL746-750 limits assumed, stated change not applied): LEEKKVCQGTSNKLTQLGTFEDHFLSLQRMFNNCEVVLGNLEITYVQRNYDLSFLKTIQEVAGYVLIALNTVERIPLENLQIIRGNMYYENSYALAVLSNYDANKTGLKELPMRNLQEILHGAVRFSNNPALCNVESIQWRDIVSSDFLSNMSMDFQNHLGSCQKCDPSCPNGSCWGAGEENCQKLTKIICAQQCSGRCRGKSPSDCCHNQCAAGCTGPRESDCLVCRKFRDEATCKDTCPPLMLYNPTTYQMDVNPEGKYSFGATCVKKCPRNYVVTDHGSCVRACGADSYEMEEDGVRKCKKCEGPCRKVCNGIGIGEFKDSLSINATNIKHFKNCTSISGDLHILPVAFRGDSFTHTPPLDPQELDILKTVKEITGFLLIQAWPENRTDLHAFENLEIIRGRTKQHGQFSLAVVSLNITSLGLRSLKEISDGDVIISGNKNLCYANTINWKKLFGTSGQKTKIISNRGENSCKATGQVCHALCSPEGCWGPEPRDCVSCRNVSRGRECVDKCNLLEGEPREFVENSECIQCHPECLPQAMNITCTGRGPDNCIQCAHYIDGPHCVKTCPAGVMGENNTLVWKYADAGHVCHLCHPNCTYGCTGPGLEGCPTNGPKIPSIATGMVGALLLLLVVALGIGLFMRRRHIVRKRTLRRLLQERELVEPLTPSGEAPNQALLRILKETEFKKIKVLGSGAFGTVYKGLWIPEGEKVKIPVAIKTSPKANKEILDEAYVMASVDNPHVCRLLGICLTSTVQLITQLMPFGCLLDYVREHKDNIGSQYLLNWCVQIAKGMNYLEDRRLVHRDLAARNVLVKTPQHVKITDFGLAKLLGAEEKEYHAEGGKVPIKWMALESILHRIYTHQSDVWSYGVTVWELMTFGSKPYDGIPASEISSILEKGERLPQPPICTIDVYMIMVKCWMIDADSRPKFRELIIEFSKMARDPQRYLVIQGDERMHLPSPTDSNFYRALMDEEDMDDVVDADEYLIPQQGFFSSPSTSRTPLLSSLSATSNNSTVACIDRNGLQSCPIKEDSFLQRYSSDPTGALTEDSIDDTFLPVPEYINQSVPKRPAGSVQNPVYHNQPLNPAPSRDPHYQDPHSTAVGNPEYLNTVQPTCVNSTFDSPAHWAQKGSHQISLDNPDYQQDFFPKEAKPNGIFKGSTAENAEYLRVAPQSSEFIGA
Experimental: as §1

T1 sequence (P04626 with tags, fused parts or gaps INS775YVMA limits assumed): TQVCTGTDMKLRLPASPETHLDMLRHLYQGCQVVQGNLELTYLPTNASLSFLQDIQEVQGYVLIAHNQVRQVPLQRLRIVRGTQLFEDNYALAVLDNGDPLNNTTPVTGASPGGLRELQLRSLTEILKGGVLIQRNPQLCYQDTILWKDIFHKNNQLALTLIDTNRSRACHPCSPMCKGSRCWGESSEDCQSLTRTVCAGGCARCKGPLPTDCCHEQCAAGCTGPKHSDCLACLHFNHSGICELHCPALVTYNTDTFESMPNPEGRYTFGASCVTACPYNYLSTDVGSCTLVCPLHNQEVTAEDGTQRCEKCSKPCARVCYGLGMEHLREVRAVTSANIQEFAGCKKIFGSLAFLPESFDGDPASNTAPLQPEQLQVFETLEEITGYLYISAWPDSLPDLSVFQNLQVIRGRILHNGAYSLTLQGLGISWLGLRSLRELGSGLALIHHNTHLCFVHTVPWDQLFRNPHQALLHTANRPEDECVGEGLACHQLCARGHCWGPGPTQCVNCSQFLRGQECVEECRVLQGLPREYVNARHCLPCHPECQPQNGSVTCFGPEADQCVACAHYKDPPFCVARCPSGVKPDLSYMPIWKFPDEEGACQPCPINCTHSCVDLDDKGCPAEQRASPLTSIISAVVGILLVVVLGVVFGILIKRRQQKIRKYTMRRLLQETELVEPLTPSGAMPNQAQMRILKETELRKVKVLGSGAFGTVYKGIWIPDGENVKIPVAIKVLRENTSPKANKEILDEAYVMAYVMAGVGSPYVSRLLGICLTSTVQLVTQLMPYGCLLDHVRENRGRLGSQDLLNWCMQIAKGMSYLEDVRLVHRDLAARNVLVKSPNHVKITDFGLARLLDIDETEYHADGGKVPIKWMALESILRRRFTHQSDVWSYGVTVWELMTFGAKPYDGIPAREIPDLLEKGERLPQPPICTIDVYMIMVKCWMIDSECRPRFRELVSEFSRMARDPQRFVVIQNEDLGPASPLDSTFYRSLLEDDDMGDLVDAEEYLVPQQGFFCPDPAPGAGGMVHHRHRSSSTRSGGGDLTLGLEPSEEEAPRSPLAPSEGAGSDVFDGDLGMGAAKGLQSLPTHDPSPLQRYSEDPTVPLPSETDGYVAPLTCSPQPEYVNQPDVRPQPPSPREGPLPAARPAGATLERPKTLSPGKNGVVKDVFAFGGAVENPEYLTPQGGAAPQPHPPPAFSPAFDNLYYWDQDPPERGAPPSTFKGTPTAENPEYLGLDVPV

Row | SMILES | IC50 [1] | IC50 [2] | IC50 [3]
1 | CS(=O)(=O)Nc1c(Cl)cccc1Nc1nc(Cl)ncc1Cl [US20240343694, Example 44] | 6 nM | < 1 nM | < 1 nM
2 | C=CC(=O)Nc1cc(N)c(OC)cc1N(C)CCN1CCN(C)CC1 [US20240343694, Example 79] | 1 nM | < 1 nM | < 1 nM
3 | Cc1cnc(Cl)nc1Nc1ccccc1NS(=O)(=O)c1ccccc1 [US20240343694, Example 28] | 70 nM | 8 nM | < 1 nM
4 | CCc1cccc(Nc2nc(Cl)ncc2Cl)c1NS(C)(=O)=O [US20240343694, Example 50] | 60 nM | 3 nM | < 1 nM
5 | CC(C)OC(=O)c1cnc(Cl)nc1Nc1cccc2c1N(S(C)(=O)=O)CCC2 [US20240343694, Example 62] | 3 nM |  | 
6 | CS(=O)(=O)N1CCc2cccc(Nc3nc(Cl)ncc3C(F)(F)F)c21 [US20240343694, Example 73] | 5 nM | < 1 nM | < 1 nM
7 | C=CC(=O)Nc1cc(N)c(OC)cc1OCCN1CCCC1 [US20240343694, Example 30] | 4 nM | < 1 nM | < 1 nM
8 | C=CC(=O)Nc1cc(Nc2ncc(Cl)c(Nc3ccccc3NS(C)(=O)=O)n2)c(OC)cc1N(C)CCN(C)C(=O)OCc1ccccc1 [US20240343694, Example 35] | 27 nM | 3 nM | < 1 nM
9 | CC(=O)N(C)c1c([N+](=O)[O-])ccc(C)c1C [US20240343694, Example 84] | 52 nM | 3 nM | 1 nM
10 | C=CC(=O)Nc1cc(N)c(OC)cc1N(C)CCN1CCCC1 [US20240343694, Example 29] | 5 nM | < 1 nM | < 1 nM
11 | C=CC(=O)Nc1cc(N)c(OC)cc1N(C)CCN1CCC1 [US20240343694, Example 82] | 2 nM | < 1 nM | < 1 nM
12 | CC(C)c1cccc(Nc2nc(Cl)ncc2Cl)c1N(C)S(C)(=O)=O [US20240343694, Example 47] | 6 nM | < 1 nM | < 1 nM
13 | C=C(F)C(=O)Nc1cc(N)c(OC)cc1N(C)CCN(C)C [US20240343694, Example 64] | 3 nM | < 1 nM | < 1 nM
14 | CN(c1c(Cl)cccc1Nc1nc(Cl)ncc1Cl)S(C)(=O)=O [US20240343694, Example 45] | 8 nM | < 1 nM | < 1 nM
15 | Cc1ccc(S(=O)(=O)Nc2ccccc2Nc2nc(Cl)ncc2F)cc1 [US20240343694, Example 23] | 30 nM | 3 nM | < 1 nM
16 | CC(=O)Nc1c([N+](=O)[O-])ccc(C)c1C [US20240343694, Example 83] | 374 nM | 19 nM | 3 nM
17 | CCc1cccc(Nc2nc(Cl)ncc2Cl)c1N(C)S(C)(=O)=O [US20240343694, Example 51] | 30 nM | < 1 nM | < 1 nM
18 | C=CC(=O)Nc1cc(Nc2ncc(Cl)c(Nc3cccc4c3N(S(C)(=O)=O)CCC4)n2)c(OC)cc1N(C)CCN(C)C(=O)OC(C)(C)C [US20240343694, Example 58] | 90 nM | 10 nM | < 1 nM
19 | CN(c1ccccc1Nc1nc(Cl)ncc1Cl)S(C)(=O)=O [US20240343694, Example 39] | 8 nM | < 1 nM | < 1 nM
20 | CCN(c1ccccc1Nc1nc(Cl)ncc1Cl)S(=O)(=O)CC [US20240343694, Example 43] | 8 nM | < 1 nM | < 1 nM
21 | CCc1cccc(Nc2nc(Cl)ncc2Cl)c1NS(=O)(=O)CC [US20240343694, Example 52] | 4 nM | < 1 nM | < 1 nM
22 | C=CC(=O)Nc1cc(N)c(OC)cc1N(C)CCN1CCOCC1 [US20240343694, Example 63] | < 1 nM |  | 

Row | SMILES | IC50 [1] | IC50 [2] | IC50 [3]
23 | CS(=O)(=O)n1ccc2cccc(Nc3nc(Cl)ncc3Cl)c21 [US20240343694, Example 74] | < 1 nM | < 1 nM | < 1 nM
24 | C=CC(=O)Nc1cc(N)c(OC)cc1N1CCC(N(C)C)CC1 [US20240343694, Example 59] | 20 nM | < 1 nM | < 1 nM
25 | Cc1ccc(Nc2nc(Cl)ncc2Cl)c(NS(C)(=O)=O)c1C [US20240343694, Example 54] | 10 nM | < 1 nM | < 1 nM
26 | C=CC(=O)Nc1cc(N)c(OC)cc1OCCN1CCCCC1 [US20240343694, Example 81] | < 1 nM | < 1 nM | < 1 nM
27 | C=CC(=O)Nc1cc(Nc2ncc(Cl)c(Nc3cccc4c3N(S(C)(=O)=O)CC4)n2)c(OC)cc1N(C)CCN(C)C(=O)OC(C)(C)C [US20240343694, Example 67] | 81 nM | < 1 nM | < 1 nM
28 | CC(=O)N(C)c1c(N)ccc(C)c1C [US20240343694, Example 85] | 871 nM | 43 nM | 18 nM
29 | Cc1ccc(S(=O)(=O)Nc2ccccc2Nc2nc(Cl)ncc2C)cc1 [US20240343694, Example 25] | 6 nM | < 1 nM | < 1 nM
30 | COC(=O)c1cnc(Cl)nc1Nc1cccc2c1N(S(C)(=O)=O)CCC2 [US20240343694, Example 61] | 1 nM | < 1 nM | < 1 nM
31 | CCN(c1c(C)cccc1Nc1nc(Cl)ncc1Cl)S(C)(=O)=O [US20240343694, Example 49] | 60 nM | 10 nM | 0.1 nM
32 | CC(=O)N(C)c1c(Nc2nc(Cl)ncc2Cl)ccc(C)c1C [US20240343694, Example 86] | 157 nM | 20 nM | 2 nM
33 | CC(C)N(c1ccccc1Nc1nc(Cl)ncc1Cl)S(C)(=O)=O [US20240343694, Example 42] | 6 nM | < 1 nM | < 1 nM
34 | CN(c1c(Nc2nc(Cl)ncc2Cl)ccc2nccnc12)S(C)(=O)=O [US20240343694, Example 75] | 3 nM | < 1 nM | < 1 nM
35 | CS(=O)(=O)N1CCc2cccc(Nc3nc(Cl)ncc3Cl)c21 [US20240343694, Example 65] | 15 nM | < 1 nM | < 1 nM
36 | C=CC(=O)Nc1cc(N)c(OC)cc1N(C)CCN(C)C(=O)OCc1ccccc1 [US20240343694, Example 34] | 20 nM | 1 nM | < 1 nM
37 | COc1cc(N2CCN(C)CC2)c(N)cc1Nc1ncc(Cl)c(Nc2ccccc2NS(C)(=O)=O)n1 [US20240343694, Example 37] | 26 nM | 2 nM | < 1 nM
38 | C=CC(=O)Nc1cc(Nc2ncc(Cl)c(Nc3ccccc3NS(C)(=O)=O)n2)c(OC)cc1N(C)CCN(C(=O)OCc1ccccc1)C(C)C [US20240343694, Example 33] | 7 nM | < 1 nM | < 1 nM
39 | CCS(=O)(=O)N1CCc2cccc(Nc3nc(Cl)ncc3Cl)c21 [US20240343694, Example 66] | 5 nM | < 1 nM | < 1 nM
40 | Cc1ccc(Nc2nc(Cl)ncc2Cl)c(N(C)S(C)(=O)=O)c1C [US20240343694, Example 53] | 10 nM |  | 
41 | C=CC(=O)Nc1cc(N)c(OC)cc1N(C)CCN1CCCCC1 [US20240343694, Example 31] | 0.3 nM | < 1 nM | < 1 nM
42 | COc1cc(N2CCOCC2)c(N)cc1Nc1ncc(Cl)c(Nc2ccccc2NS(C)(=O)=O)n1 [US20240343694, Example 36] | 10 nM | 1 nM | < 1 nM
43 | CS(=O)(=O)N1CCc2cccc(Nc3nc(Cl)ncc3C#N)c21 [US20240343694, Example 70] | 33 nM | 4 nM | < 1 nM
44 | O=S1(=O)CCCN1c1ccccc1Nc1nc(Cl)ncc1Cl [US20240343694, Example 77] | 2 nM | < 1 nM | < 1 nM
